Results from patent US11186576B2, “Pyrazolo[1,5-A][1,3,5]triazine and pyrazolo[1,5-A]pyrimidine derivatives as CDK inhibitors” (Aurigene Discovery Technologies Limited, priority 2015, dated 2021).

Key:
[1] = target: CDK7/CycH/MNAT1 (Homo sapiens (Human), UniProt P50613); experiment: Biochemical assay for CDK7 (TR-FRET kinase assay); conditions: 60 min pre-incubation, 1 mM ATP; for IC50: read-out: IC50; for inhibition at 10 µM: 10 μM compound, read-out: % inhibition @ 10 μM
How it was run: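 CDK7/CycH/MNAT1 (5 nM) was preincubated with compound for 60 min at room temperature, then reacted for 60 min with 100 nM ULight-MBP and 1 mM ATP in 1% DMSO. Irreversibility was probed with 20, 60 and 180 min preincubations.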

[2] = system: RNA polymerase II CTD phosphorylation (MDA-MB-231/NCI-H358 cells); experiment: Inhibition of RNA polymerase II CTD phosphorylation in cell western assay; type: cell-based; conditions: 4 hours incubation, phospho RNA Pol II Ser-5 or Ser-2
How it was run: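 MDA-MB-231 or NCI-H358 cells treated 4 h at 37 °C with 3-fold dilutions from 10 μM, then fixed and immunostained for phospho-Ser5 or phospho-Ser2 RNA Pol II CTD. Europium-labelled secondaries give the time-resolved fluorescence read-out, normalised to Hoechst; EC50 reported in binned ranges.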

Chain of CDK7/CycH/MNAT1 (P50613 whole entry): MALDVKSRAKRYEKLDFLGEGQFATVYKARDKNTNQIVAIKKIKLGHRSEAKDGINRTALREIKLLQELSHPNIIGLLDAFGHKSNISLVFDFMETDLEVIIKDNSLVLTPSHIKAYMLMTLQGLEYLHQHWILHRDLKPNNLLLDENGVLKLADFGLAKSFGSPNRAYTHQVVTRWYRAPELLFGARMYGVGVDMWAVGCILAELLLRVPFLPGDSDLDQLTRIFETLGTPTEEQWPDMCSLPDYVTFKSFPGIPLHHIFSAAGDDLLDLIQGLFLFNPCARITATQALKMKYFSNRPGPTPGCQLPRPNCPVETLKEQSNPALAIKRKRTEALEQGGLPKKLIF
Chain of CDK7/CycH/MNAT1 (P51946 whole entry partner): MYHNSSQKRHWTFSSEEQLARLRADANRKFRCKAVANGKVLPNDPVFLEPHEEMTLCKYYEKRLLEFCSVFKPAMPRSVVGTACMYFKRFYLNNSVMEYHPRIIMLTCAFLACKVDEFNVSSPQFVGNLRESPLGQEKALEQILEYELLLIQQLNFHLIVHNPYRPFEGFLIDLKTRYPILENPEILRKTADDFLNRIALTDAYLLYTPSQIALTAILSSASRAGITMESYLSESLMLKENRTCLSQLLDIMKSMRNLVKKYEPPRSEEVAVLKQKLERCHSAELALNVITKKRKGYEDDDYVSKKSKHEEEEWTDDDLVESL
Chain of CDK7/CycH/MNAT1 (P51948 whole entry partner): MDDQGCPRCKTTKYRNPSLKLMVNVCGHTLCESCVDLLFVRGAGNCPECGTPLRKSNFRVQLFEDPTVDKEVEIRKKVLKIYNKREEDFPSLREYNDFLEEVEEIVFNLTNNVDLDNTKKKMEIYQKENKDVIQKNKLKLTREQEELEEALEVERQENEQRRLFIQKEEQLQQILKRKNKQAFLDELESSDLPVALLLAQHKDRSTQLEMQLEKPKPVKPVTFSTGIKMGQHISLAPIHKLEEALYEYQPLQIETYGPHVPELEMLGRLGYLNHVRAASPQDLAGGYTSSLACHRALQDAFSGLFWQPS

IC50 [1] | EC50 [2] | inhibition at 10 µM [1] | SMILES
< 0.3 µM | > 10 µM | – | CC(C)c1cnn2c(NCc3cccc(NC(=O)C4CCCN(C(=O)/C=C/CN(C)C)C4)c3)nc(OC3CCN(C)CC3)nc12 (centres unmarked) [Compound 122, (E)-1-(4-(dimethylamino)but-2-enoyl)-N-(3-(((8-isopropyl-2-((1-methyl-piperidin-4-yl)oxy)pyrazolo[1,5-a][1,3,5]triazin-4-yl)amino)methyl)phenyl)-piperidine-3-carboxamide]
< 0.3 µM | 1 to 10 µM | 97% | C=CC(=O)N1CCC(C(=O)Nc2cccc(CNc3nc(N[C@@H]4CCNC[C@H]4F)nc4c(C(C)C)cnn34)c2)C1 (stereo partly drawn) [Compound 14, 1-acryloyl-N-(3-(((2-(((3R,4R)-3-fluoropiperidin-4-yl)amino)-8-isopropylpyrazolo[1,5-a][1,3,5]triazin-4-yl)amino)methyl)phenyl)pyrrolidine-3-carboxamide]
< 0.3 µM | ≤ 1 µM | 94% | C=CC(=O)N[C@H]1CC[C@@H](C(=O)Nc2cccc(CNc3nc(OC4CCN(C)CC4)nc4c(C(C)C)cnn34)c2)CC1 [Compound 115, (1,4-cis)-4-acrylamido-N-(3-(((8-isopropyl-2-((1-methylpiperidin-4-yl)oxy)pyrazolo[1,5-a][1,3,5]triazin-4-yl)amino)methyl)phenyl)cyclohexane-1-carboxamide]
